Measured values: article PMC9024523, “Phenoxyaromatic Acid Analogues as Novel Radiotherapy Sensitizers: Design, Synthesis and Biological Evaluation” (Molecules, 2022)
Several values for one entry are separate records, joined by “and”; a condition that tells them apart may be missing. Equal values may be shown once. Entries after “also recorded” stand apart in the source; their conditions may differ. Read-outs that look alike come from different tables or passages of the source.

Columns and labels:
U87MG cells = experiment: Cell Titer-Glo cytotoxicity assay, U87MG; type: cell-based, human
Method: (§1) For further in vivo evaluation of newly synthesized compounds, 19c and 19t were selected as candidates. Hemoglobin allosteric effectors require a relatively high blood concentration to be effective. Cytotoxicity evaluation was conducted out of consideration for medication safety. HEK293 and U87MG cells were used to evaluate the cytotoxicity.
(§2) Luciferase-transfected human glioma cells (U87-luc) and HEK293 cells were kindly provided by Dr. Nie and cultured in Dulbecco’s Modified Eagle Medium (CM10013, MacGene) with 10% fetal bovine serum (1966173C, Gibco) and 1% penicillin-streptomycin in a humidified atmosphere of 5% CO2 at 37 °C.
(§3) Cells were plated in a 96-well plate at a density of 2000 cells/well and then treated with 19c or 19t at gradient concentrations of 10^1, 10^2, 10^3, 10^4, 10^5, 10^6and 10^7 nM. Compounds 19c and 19t were prepared as the sodium salt by adding saturated sodium bicarbonate in the process of stock solution preparation. Cell viability was evaluated on the indicated days after treatment with a Cell Titer-Glo Luminescent Cell Viability Assay kit (G7572, Promega, Madison, WI, USA) according to the manufacturer’s instructions. All data were normalized to those on day 0 and presented as the mean ± standard deviation (SD).

mouse red blood cells [1] = experiment: In vitro red blood cell-based assay (oxygen equilibrium curve, Softron analyzer)
HEK293 cells = experiment: Cell Titer-Glo cytotoxicity assay, HEK293; type: cell-based
Method: as §1, §2, §3

[2] = Pharmacokinetic study in rats; type: in vivo; details: rat; for AUC(0-inf) / AUC(0-t) / Cmax / Tmax / half-life / MRT inf: male, Sprague-Dawley, plasma; for MRT inf: read-out: MRTInf_obs; for AUC_%Extrap_obs: (AUCinf−AUClast)/AUCinf
Method: Based on the potential radiosensitization effects in vivo, we performed an in vivo pharmacokinetic (PK) study to preliminarily evaluate the druggability of 19c at a dosage of 100 mg/kg by intraperitoneal injection (ip) or oral administration (po).
The pharmacokinetic experiments with 19c in rats were performed by Beijing Pharmaron, Inc. All animals were maintained in the pathogen-free barrier animal facility, and the experiments were approved by the Animal Care and Use Committee of the company. The drug solution was formulated into a 10 mg/mL solution with normal saline on the day of administration. After a single dose of 19c (100 mg/kg) by intraperitoneal injection (ip) or oral administration (po) in male Sprague-Dawley rats (n = 3), blood samples were collected 0.25, 0.5, 1, 2, 4, 6, 8 and 24 h post dose and centrifuged at 4000× g for 5 min at 4 °C to obtain plasma. The plasma was diluted 3 times with water. A measure of 2 µL of diluted supernatant was injected into the LC/MS/MS system for quantitative analysis. […] The Phoenix WinNonlin 8.0 software was applied for the calculation of pharmacokinetic parameters.

[3] = test system: luciferase-labeled U87MG implanted into Balb/c nude mice brains; experiment: In vivo radiosensitization on orthotopically transplanted GB; set-up: species or system mouse
Method: In order to evaluate in vivo antitumor effects, luciferase-labeled U87MG was implanted into Balb/c nude mice brains. A small animal bioluminescence imaging system was applied to trace the tumor formation and dynamic changes in GB size. Cobalt 60 was used for fractionated-dose whole-brain irradiation therapy (IR). The tumor was irradiated with a total dose of 12 Gy in four fractions of 3 Gy at a dose rate of 0.3 Gy/min. Efaproxiral or 19c was administrated at a dosage of 150 mg/kg by intraperitoneal injection (ip) every four days over a period of sixteen days. IR was conducted 15 min after ip.
Four-week-old female BALB/c nude mice were purchased from Beijing Vital River Laboratory Animal Technology Co., Ltd. Animals were monitored daily by certified veterinary staff and laboratory personnel. All mice used in this study were maintained in a pathogen-free barrier animal facility. The study was in compliance with all relevant ethical regulations regarding animal research. All animal experiments were approved by the Institutional Animal Care and Use Committee at the Beijing Institute of Basic Medical Sciences. The U87-luc cells were processed and resuspended into basal medium at a concentration of 10^7 cells/mL. Next, 8 × 10^5 U87-luc glioma cells were implanted into the right frontal lobes of each nude mouse. Ten days after tumor implantation, tumor-bearing mice were randomly divided into six groups according to the tumor size and subjected to the indicated treatment (n = 6). Administration of drugs (150mg/kg) or vehicle was performed once every 4 days four consecutive times by intraperitoneal injection. All radiation treatments were performed 25 min after the drug or vehicle was given. Tumors on the brains of mice were irradiated at a dosage of 3 Gy four consecutive times using a ^60Co γ irradiator. The dose rate was 0.3 Gy/min. The bodies of the mice were shielded using lead blocks. The tumor progress was tracked by a small animal live bioluminescence imaging system (LB983NC100U, Germany).

mouse red blood cells [4] = experiment: In vitro red blood cell-based assay (oxygen equilibrium curve, Softron analyzer); details: final effector concentration 2 mM, mean ± SD
Excerpt: In the first stage of our research, three series of analogues were designed and synthesized to explore refinement of the hydrophobic parts of 19f, 19m, 24a and 24b; hinge areas of 18g, 19b and 19y; and tail regions of 15c, 15d and 16c, respectively. We used the Softron Analyzer to evaluate the effect of these compounds on the half-blood oxygen saturation(P50) value of red blood cells. The most promising phenoxyaromatic acid compound, efaproxiral, was used as a positive control. […] The results reminded us that the modification of the hydrophobic part or linker extension is beneficial to improve an allosteric effect.
Eight-week-old female C57BL6J mice were purchased from Beijing Vital River Laboratory Animal Technology Co., Ltd. A total of 540 μL mouse blood was added into the 1.5 mL centrifuge tube, followed by adding 60 μL 3.8% sodium citrate. The mixture was then centrifuged at 1500 rpm for 10 min, the supernatant was carefully aspirated, and the cells were washed three times with PBS solution. After mixing packed red blood cells with Alsever’s solution in a ratio of 1:1, a blood gas analyzer (RADIOMETER ABL 90) was used to analyze the red blood cell density and hemoglobin concentration.
All of the compounds were prepared as 200 mM stock solutions in DMSO. Oxygen equilibrium measurements were performed with the Softron analyzer (Softron Medical Products, Beijing, China) using mouse red blood cells. The samples were prepared by adding 3 mg hemoglobin equivalent of red blood cells into 3.92 mL loading buffer (100 mM NaCl, 50 mM bis-Tris at pH 7.2 and 25 °C), followed by 20 μL 10% Dimethicone as a defoamer and 20 μL 20% BSA. Afterwards, 40 μL stock solution was added, and the mixture was loaded to the sample cell and fully deoxygenated by blowing into nitrogen at 37 °C for 15 min. Then, the oxygen equilibrium curve was recorded by blowing into oxygen.

In the case of `Cc1cc(C)cc(NC(=O)CCc2ccc(OC(C)(C)C(=O)O)cc2)c1` [19c, 2-(4-(3-((3,5-dimethylphenyl)amino)-3-oxopropyl)phenoxy)-2-methylpropanoic acid], the “cytotoxicity (summary statement)” value (U87MG cells; U87MG (glioma) cells) is reported as “no cytotoxicity”, the cytotoxicity (U87MG cells; U87MG cells, concentration of 5 mM) is reported as “no cytotoxic effect” and the “influence on the Bohr effect of red blood cells” value (mouse red blood cells [1]; 2 mM, change in acidity, OEC shift) is reported as “will not offset the Bohr effect; also recorded: preserved the Bohr effect”. For the same compound, the “dose–response relationship of oxygen affinity of hemoglobin” value (mouse red blood cells [1]; different concentrations, oxygen dissociation curve) was “dose-dependently altered the oxygen affinity of hemoglobin; also recorded: exerts an allosteric effect on hemoglobin at a micromolar level”, the “cytotoxicity (summary statement)” value (HEK293 cells; HEK293 (normal) cells) was “no cytotoxicity” and the cytotoxicity (HEK293 cells; HEK293 cells, concentration of 5 mM) was “no cytotoxic effect”. For the same compound, the AUC(0-inf) ([2]; ip 100 mg/kg) was 612 µg·h/mL, the AUC(0-t) ([2]; ip 100 mg/kg, saline) was 612 µg·h/mL and the Cmax ([2]; ip 100 mg/kg, saline) was 202 µg/mL. For the same compound, the Tmax ([2]; ip 100 mg/kg, saline) was 0.25 h, the half-life ([2]; ip 100 mg/kg, saline) was 2.55 h and the MRT inf ([2]; ip 100 mg/kg, saline) was 2.32 h. The AUC(0-inf) ([2]; po 100 mg/kg, saline) was 411 µg·h/mL, the AUC(0-t) ([2]; po 100 mg/kg, saline) was 410 µg·h/mL and the Cmax ([2]; po 100 mg/kg, saline) was 111 µg/mL. For the same compound, the Tmax ([2]; po 100 mg/kg, saline) was 2 h, the half-life ([2]; po 100 mg/kg, saline) was 2.78 h and the MRT inf ([2]; po 100 mg/kg, saline) was 2.58 h. For the same compound, the oral availability [2] was “orally available”, the AUCinf ([2]; ip 100 mg/kg, saline) was 612,428 h*ng/mL and the AUC_%Extrap_obs ([2]; ip 100 mg/kg) was 0.0362%. It also gave an AUClast/D ([2]; ip 100 mg/kg) of 6122, an AUC_%Extrap_obs ([2]; po 100 mg/kg) of 0.0522% and an AUClast/D ([2]; po 100 mg/kg) of 4104. For the same compound, the “clinical symptoms during the PK experiment” value ([2]; single dose 100 mg/kg ip or po) was “No abnormal clinical symptoms”, the “overall survival time of tumor-bearing mice compared to vehicle control” value ([3]; 150 mg/kg ip combined with IR) was “could improve the overall survival time” and the “radiosensitization effect in vivo (summary statement)” value ([3]; orthotopically transplanted GB in mouse brains) was “exhibited a radiosensitization effect; also recorded: effective GB radiosensitizer”. The P50/P50C (mouse red blood cells [4]; P50C = control with 1% DMSO) was 2.04 ± 0.04, the P50 (mouse red blood cells [4]; 1% DMSO, mouse red blood cells) was 89.16 ± 5.20 mmHg and the “∆P50” value (mouse red blood cells [4]; ∆P50 = P50 − P50C, mouse red blood cells) was 45.50 mmHg and 45.50 ± 1.73 mmHg.
